Data as given in US12509421B2, “Preparation and application of deuterated 4-phenyl-4-piperidinols” (priority 2022, dated 2025).
Entries after “also recorded” stand apart in the source; their conditions may differ. Read-outs that look alike come from different tables or passages of the source.

Legend:
[1] = target: CYP 2C19 (Homo sapiens, UniProt P33261); experiment: Inhibition of cytochrome P450 enzyme in human liver microsomes, CYP 2C19
[2] = Metabolic stability in liver microsomes, human; settings: human, microsomes, pH 7.4
Protocol: (§1) The solution B is slowly dropped into solution A, and the pH is adjusted to 7.40±0.05.
(§2) • Control drug: 4 μL Verapamil solution (10 mM) is added with 96 μL DMSO and diluted to 400 μM; • Compound to be tested: 4 μL compound to be tested (10 mM) is added with 96 μL normal saline and diluted to 400 μM.
(§3) The microsomes are stored in the refrigerator at −80° C., thawed at room temperature after being taken out, and mixed gently.
(§4) […] PBS (100 mm, pH=7.4) solution is added to the negative sample. The solution is put into water bath at 37° C. and pre-incubated for 10 minutes; • B) After incubation, 2 μL reference drug or compound to be tested (400 μM) are added into each well to start the reaction.

[3] = Metabolic stability in liver microsomes, mouse; settings: mouse, microsomes, pH 7.4
Protocol: as §1, §2, §3, §4

[4] = Metabolic stability in liver microsomes, rat; settings: rat, microsomes, pH 7.4
Protocol: as §1, §2, §3, §4

[5] = Metabolic stability in liver microsomes, dog; settings: dog, microsomes, pH 7.4
Protocol: as §1, §2, §3, §4

[6] = target: T1, hERG potassium channel (Homo sapiens, UniProt Q12809); settings: read-out: hERG IC50; J Med Chem.2013 24; 56 (20): 8019-31; cited from earlier work
T1 sequence (Q12809 whole entry): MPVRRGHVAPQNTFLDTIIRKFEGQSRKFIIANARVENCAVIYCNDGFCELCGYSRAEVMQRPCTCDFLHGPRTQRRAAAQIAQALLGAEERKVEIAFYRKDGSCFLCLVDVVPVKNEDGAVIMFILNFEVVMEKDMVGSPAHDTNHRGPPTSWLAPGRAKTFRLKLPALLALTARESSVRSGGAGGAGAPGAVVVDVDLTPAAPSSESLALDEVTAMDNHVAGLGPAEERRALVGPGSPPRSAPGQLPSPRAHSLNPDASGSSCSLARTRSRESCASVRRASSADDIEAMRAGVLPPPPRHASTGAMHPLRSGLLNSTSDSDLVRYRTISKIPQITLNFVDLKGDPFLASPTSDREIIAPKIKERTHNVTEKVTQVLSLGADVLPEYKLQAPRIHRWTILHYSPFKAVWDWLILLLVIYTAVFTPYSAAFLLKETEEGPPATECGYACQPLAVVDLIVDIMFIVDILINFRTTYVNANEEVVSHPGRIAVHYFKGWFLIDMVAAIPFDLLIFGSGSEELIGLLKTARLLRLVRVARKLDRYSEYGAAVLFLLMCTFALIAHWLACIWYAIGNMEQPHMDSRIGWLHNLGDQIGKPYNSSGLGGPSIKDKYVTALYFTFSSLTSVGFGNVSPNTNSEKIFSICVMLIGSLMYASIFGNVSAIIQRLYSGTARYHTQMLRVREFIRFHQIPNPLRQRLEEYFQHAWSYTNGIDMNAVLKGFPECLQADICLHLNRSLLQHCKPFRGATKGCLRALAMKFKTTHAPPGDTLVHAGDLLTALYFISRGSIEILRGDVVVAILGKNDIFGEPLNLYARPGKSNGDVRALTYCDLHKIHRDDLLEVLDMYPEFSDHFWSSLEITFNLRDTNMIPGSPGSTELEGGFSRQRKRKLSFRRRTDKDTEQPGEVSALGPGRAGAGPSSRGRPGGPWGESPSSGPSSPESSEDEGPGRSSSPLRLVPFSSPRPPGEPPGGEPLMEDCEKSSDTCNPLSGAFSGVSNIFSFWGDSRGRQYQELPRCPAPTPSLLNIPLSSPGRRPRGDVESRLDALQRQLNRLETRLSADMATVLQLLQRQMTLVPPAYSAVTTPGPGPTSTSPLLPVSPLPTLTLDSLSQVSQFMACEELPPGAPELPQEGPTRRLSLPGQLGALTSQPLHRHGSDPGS

[7] = target: CYP 2D6 (Homo sapiens, UniProt P10635); experiment: Inhibition of cytochrome P450 enzyme in human liver microsomes, CYP 2D6
CYP 2D6, sequence (P10635 whole entry): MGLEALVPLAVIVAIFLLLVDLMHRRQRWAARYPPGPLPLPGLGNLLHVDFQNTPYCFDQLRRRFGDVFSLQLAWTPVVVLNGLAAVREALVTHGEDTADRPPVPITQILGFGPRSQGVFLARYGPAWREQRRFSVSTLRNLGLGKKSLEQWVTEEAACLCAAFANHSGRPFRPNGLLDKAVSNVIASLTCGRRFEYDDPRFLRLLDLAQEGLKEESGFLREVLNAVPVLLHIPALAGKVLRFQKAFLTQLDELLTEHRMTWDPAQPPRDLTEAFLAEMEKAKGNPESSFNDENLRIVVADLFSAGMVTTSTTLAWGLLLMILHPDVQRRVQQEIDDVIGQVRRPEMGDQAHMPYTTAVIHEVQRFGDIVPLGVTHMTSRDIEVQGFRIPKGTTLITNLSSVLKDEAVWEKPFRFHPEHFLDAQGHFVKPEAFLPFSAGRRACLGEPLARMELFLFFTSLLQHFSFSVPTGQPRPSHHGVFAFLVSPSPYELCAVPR

[8] = target: T1, hERG potassium channel; experiment: hERG potassium channel whole-cell patch clamp (HEK293); assay type: cell-based; parameters: expressed in transfected cells; host or cells: HEK293 cell line
Description: The rapidly activated potassium channel encoded by human ether-a-go-go-related gene (hERG) is an important ion channel involved in the formation of phase 3 repolarization of myocardial action potential. […] Drug-induced delayed ventricular repolarization may cause fatal arrhythmia-torsade de pointes in some cases. According to statistics, about 25-40% of the lead compounds show different degrees of hERG-related toxicity, and many drugs are withdrawn from the market because they may lead to the risk of QT interval extension. At present, National Medical Products Administration also requires hERG/IKr safety evaluation data before clinical trial application (IND) of new drugs under study. • 1. Whole-cell patch clamp technique is used to study the inhibitory effect of compounds on hERG potassium channels: • 1) the compound to be tested is stored with physiological saline prepared into 10 mM liquid. The test stock solution is diluted with physiological saline into 3 mM, 1 mM and 0.3 mM diluents in turn. […] The old culture medium removed and is washed once with PBS, then added with 1 mL TrypLE™ Express solution and incubated at 37° C. for about 0.5 minutes. When the cells are detached from the bottom of the dish, about 5 ml complete medium preheated is added at 37° C. The cell suspension is gently blown with a straw to separate the aggregated cells. The cell suspension is transferred to a sterile centrifuge tube and centrifuged at 1000 rpm for 5 minutes to collect cells. […] The clamping voltage is depolarized from −80 mV to −50 mV for 0.5 seconds (as leakage current detection), then stepped to 30 mV for 2.5 seconds, and then quickly recovered to −50 mV for 4 seconds, which can excite the tail current of hERG channel. Data are collected repeatedly every 10s to observe the effect of drugs on hERG tail current. 0.5 seconds-50 mV stimulation is used as leakage current detection. The test data are collected by IPA amplifier (Sutter Instrument) and stored in SutterPatch software.
Capillary glass tube is drawn into recording electrode by microelectrode drawing instrument. Under the inverted microscope, the microelectrode manipulator is operated to contact the recording electrode with the cell, and negative pressure suction is given to form a GΩ seal. After the GΩ seal is formed, rapid capacitance compensation is carried out, and then negative pressure is continuously applied to break the cell membrane, forming a whole cell recording mode. Then the slow capacitance is compensated and the film capacitance and series resistance are recorded. No leakage compensation is given.
When the hERG current recorded in the whole cell is stable, the drug is administered, and the next concentration is detected after each drug concentration acts for 5 minutes (or the current is stable), and multiple concentrations are detected for each test compound. The cover glass covered with cells is placed in the recording bath in an inverted microscope, and the test compound and the external liquid containing no compound flowed through the recording bath from low concentration to high concentration by gravity perfusion method, so as to act on the cells, and liquid exchange is carried out by using a vacuum pump during recording. The current detected by each cell in the external fluid without compounds is used as its own control group.
At least two cells are used to detect each concentration independently and repeatedly twice. All electrophysiological tests are conducted at room temperature.
Firstly, the current after each drug concentration and the blank control current are standardized
[formula] followed by the calculation of the inhibition rate
[formula] corresponding to each drug concentration, the average and standard deviation for each concentration, and the semi-inhibition concentration of each compound with the following equation: […]
The dose-dependent effect is nonlinear fitted by the above equation, and IC50 is semi-inhibitory concentration.

[9] = target: CYP 2C9 (Homo sapiens, UniProt P11712); experiment: Inhibition of cytochrome P450 enzyme in human liver microsomes, CYP 2C9
CYP 2C9, sequence (P11712 whole entry): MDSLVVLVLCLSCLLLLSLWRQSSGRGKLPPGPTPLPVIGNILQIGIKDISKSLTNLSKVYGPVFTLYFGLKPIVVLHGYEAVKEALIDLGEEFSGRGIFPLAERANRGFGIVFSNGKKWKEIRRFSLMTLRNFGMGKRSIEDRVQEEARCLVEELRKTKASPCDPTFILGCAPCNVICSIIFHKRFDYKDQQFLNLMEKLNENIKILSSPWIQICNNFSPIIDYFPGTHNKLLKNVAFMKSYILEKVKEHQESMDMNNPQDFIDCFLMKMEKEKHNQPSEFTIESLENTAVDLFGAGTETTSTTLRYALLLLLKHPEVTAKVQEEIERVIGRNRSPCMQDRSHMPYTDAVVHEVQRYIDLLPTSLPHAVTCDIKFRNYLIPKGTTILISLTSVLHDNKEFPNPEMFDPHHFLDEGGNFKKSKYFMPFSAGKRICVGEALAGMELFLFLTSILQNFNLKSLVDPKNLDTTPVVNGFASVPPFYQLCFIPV

CYP 2C19, sequence (P33261 whole entry): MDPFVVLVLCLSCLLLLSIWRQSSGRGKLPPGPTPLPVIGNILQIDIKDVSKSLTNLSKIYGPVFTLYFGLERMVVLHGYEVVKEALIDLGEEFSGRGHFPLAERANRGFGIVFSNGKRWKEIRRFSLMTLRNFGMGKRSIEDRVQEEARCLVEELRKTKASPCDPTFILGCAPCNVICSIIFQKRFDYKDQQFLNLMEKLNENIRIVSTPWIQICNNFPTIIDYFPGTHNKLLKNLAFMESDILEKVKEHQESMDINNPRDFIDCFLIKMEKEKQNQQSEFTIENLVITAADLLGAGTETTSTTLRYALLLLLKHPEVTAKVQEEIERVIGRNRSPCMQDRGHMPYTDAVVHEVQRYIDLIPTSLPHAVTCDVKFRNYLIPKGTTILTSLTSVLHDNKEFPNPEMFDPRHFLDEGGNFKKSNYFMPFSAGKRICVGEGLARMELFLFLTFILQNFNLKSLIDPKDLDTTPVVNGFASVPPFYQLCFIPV

COc1ccsc1CNCC[C@@]1(c2ccccn2)CCOC2(CCCC2)C1 [TRV-130, reference compound]
IC50 [1]: > 50 µM
half-life at 2 μM [2]: 4.08 min
microsomal CLint at 2 μM [2]: 340 µL/min/mg
half-life at 2 μM [3]: 1.67 min
microsomal CLint at 2 μM [3]: 831 µL/min/mg
half-life at 2 μM [4]: 1.61 min
microsomal CLint at 2 μM [4]: 863 µL/min/mg
half-life at 2 μM [5]: 2.22 min
microsomal CLint at 2 μM [5]: 624 µL/min/mg
IC50 [6]: 6.2 µM
IC50 [7]: 7.17 µM
IC50 [8]: 6.17 µM
hERG inhibition grade [8]: moderate inhibitory effects on hERG; also recorded: μM(Moderate intensity inhibition)
IC50 [9]: > 50 µM
